Assay results reported in patent publication EP0845478B1, “Reductive alkylation of glycopeptide antibiotics” (ELI LILLY AND COMPANY, priority 1996, dated 1998).
Entries after “also recorded” stand apart in the source; their conditions may differ.

Experiments:
[1] = Solubility of copper salts in methanol, with pH; format: physicochemical; conditions: for pH: pH of copper salt (0.165 mmol) in 50 mL methanol after 15 min stirring, before nucleus is added; for Salt Solubility in MeOH: copper salt (0.165 mmol) in 50 mL methanol, stirred at ambient temperature for 15 min
Description: (§1) The same copper salts were further evaluated for their solubility in methanol and for the solubility of the starting glycopeptide antibiotic in their presence. The procedure was as follows: the copper salt (0.165 mmol) was added to 50 mL methanol and stirred at ambient temperature for 15 min. Solubility data was recorded as well as the pH. […] Solubility and pH data was recorded.

[2] = Solubility of the starting glycopeptide antibiotic (nucleus) in methanol in the presence of the copper salt, with pH; format: physicochemical; conditions: stirred 15 min; for pH: pH after addition of glycopeptide nucleus (0.26 mmol) to copper salt in 50 mL methanol; for nucleus solubility in presence of salt: Glycopeptide nucleus (0.55 g, 0.26 mmol) added to copper salt (0.165 mmol) in 50 mL methanol
Description: as §1

Structure (SMILES)	pH [1]	pH [2]	Salt Solubility in MeOH [1]	nucleus solubility in presence of salt [2]
CCCCC(CC)C(=O)[O-].CCCCC(CC)C(=O)[O-].[Cu+2] (centres unmarked) [Cu(2-ethylhexanoate)2]	6.5	~6.7	–	–
O=C([O-])C(F)(F)F.O=C([O-])C(F)(F)F.[Cu+2] [Cu(O2CCF3)2]	4.4	6.2	soluble, clear lite blue	soluble, clear purple
CC(=O)[O-].CC(=O)[O-].[Cu+2] [Cu(OAc)2]	6.5	~6.7	–	–
[Cu+2].[OH-].[OH-] [Cu(OH)2]	6.2	7.0	nearly insoluble; also recorded: low, cloudy lite blue soln	slightly, cloudy lite blue
O=C([O-])CCCC1CCCCC1.O=C([O-])CCCC1CCCCC1.[Cu+2] [Cu(cyclohexanebutyrate)2]	6.0	~6.7	faint cloudiness, lite blue-green	complete dissolution; also recorded: soluble, clear purple
[Br][Cu][Br] [CuBr2]	2.8	5.9	soluble, clear yellow	soluble, clear purple
[Cl][Cu][Cl] [CuCl2]	3.2	6.6	soluble, clear colorless	slightly, cloudy purple
[F][Cu][F] [CuF2]	5.9	7.0	nearly insoluble; also recorded: low, cloudy white soln	slightly, cloudy pink
O.O.O.O.O.O=S(=O)([O-])[O-].[Cu+2] [CuSO4·5H2O]	3.7	6.2	soluble, clear colorless	slightly, cloudy purple
